Results: the supplement of paper PMC10307832

Compound: CC(C)C[C@@H](C(=O)N[C@H](C(=O)OC1CCCC1)c1ccccc1)[C@H](O)C(=O)NO [Tosedostat] + CC1(C)CCC(c2ccc(Cl)cc2)=C(CN2CCN(c3ccc(C(=O)NS(=O)(=O)c4ccc(N[C@H](CCN5CCOCC5)CSc5ccccc5)c(S(=O)(=O)C(F)(F)F)c4)cc3)CC2)C1 [Navitoclax] (partner 0.5 µM)
Test: relative viability (nuclei count vs DMSO), 5 days (fraction); higher = more cells survive
Conditions: first compound 2 µM
Method in brief: (§1)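 For relative viability, nuclei counts in treated wells were divided by those in vehicle wells. Lung cancer cell lines had been pin-tool dosed in 1536-well plates the day after seeding and cultured for 5 days, then fixed and stained in one step (final 0.05% Triton X-100, 1% formaldehyde, 1 ug/ml Hoechst) and imaged at 4×. Doses were one drug alone or a fixed anchor-drug dose plus five library-drug doses (not always all listed) in √10 steps, and values are duplicate-plate medians.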

Cell Line | relative viability
NCI-H2126 | 0.721
A-427 | 0.925
RERF-LC-KJ | 0.614
NCI-H1915 | 0.711
NCI-H441 | 0.339
NCI-H1975 | 0.869
NCI-H1395 | 0.886
201T | 1.28
NCI-H2023 | 0.923
HCC-827 | 0.86
NCI-H322M | 1.02
NCI-H1437 | 0.99
PC-14 | 1.06
CAL-12T | 0.965
NCI-H1734 | 0.683
EPLC-272H | 0.576
NCI-H3122 | 1.03
NCI-H2009 | 1.07
NCI-H520 | 1.4
NCI-H1651 | 1
NCI-H1993 | 0.603
NCI-H2228 | 0.793
HCC-15 | 0.57
NCI-H1793 | 0.4
EKVX | 0.804
LC-2-ad | 0.264
NCI-H1666 | 1.05
NCI-H1944 | 1.01
NCI-H2085 | 1.08

Compound: CC1=NN=C(O1)C2=NN=C(C=C2)N3CCC(CC3)OC4=C(C=CC(=C4)F)Cl + CC1(C)CCC(c2ccc(Cl)cc2)=C(CN2CCN(c3ccc(C(=O)NS(=O)(=O)c4ccc(N[C@H](CCN5CCOCC5)CSc5ccccc5)c(S(=O)(=O)C(F)(F)F)c4)cc3)CC2)C1 [Navitoclax] (partner 0.5 µM)
Test: as above
Conditions: first compound 0.253 µM
Method in brief: as §1

Cell Line | relative viability
NCI-H460 | 0.429
HOP-62 | 0.834
LXF-289 | 0.714
BEN | 0.0638
HARA | 0.451
HCC-78 | 0.436
NCI-H647 | 0.744
LCLC-97TM1 | 0.623
NCI-H2126 | 0.785
A-427 | 0.86
RERF-LC-KJ | 0.781
NCI-H1915 | 0.372
NCI-H441 | 0.536
NCI-H1395 | 1.17
201T | 0.542
NCI-H2023 | 0.486
HCC-827 | 0.397
NCI-H322M | 1.17

Cell Line | relative viability
NCI-H1437 | 0.571
PC-14 | 0.742
CAL-12T | 1
NCI-H1734 | 0.826
EPLC-272H | 0.935
NCI-H3122 | 0.564
NCI-H2009 | 0.667
NCI-H520 | 0.926
NCI-H1651 | 0.809
NCI-H1993 | 0.804
NCI-H2228 | 0.63
HCC-15 | 0.477
NCI-H1793 | 0.45
EKVX | 0.451
LC-2-ad | 0.318
NCI-H1666 | 0.706
NCI-H1944 | 0.637
NCI-H2085 | 0.9

Same assay, conditions: first compound 0.8 µM

Cell Line | relative viability
NCI-H460 | 0.42
HOP-62 | 0.542
LXF-289 | 0.7
BEN | 0.0498
HARA | 0.392
HCC-78 | 0.43
NCI-H647 | 0.704
NCI-H2126 | 0.759
NCI-H1915 | 0.281
NCI-H441 | 0.654
NCI-H1975 | 0.82
NCI-H1395 | 0.859
201T | 0.627
NCI-H2023 | 0.557
HCC-827 | 0.291
NCI-H322M | 1.11
NCI-H1437 | 0.66

Cell Line | relative viability
PC-14 | 0.717
CAL-12T | 1.09
NCI-H1734 | 0.682
NCI-H3122 | 0.612
NCI-H2009 | 0.671
NCI-H520 | 0.566
NCI-H1651 | 0.783
NCI-H1993 | 0.824
NCI-H2228 | 0.592
HCC-15 | 0.445
NCI-H1793 | 0.397
EKVX | 0.368
LC-2-ad | 0.242
NCI-H1666 | 0.667
NCI-H1944 | 0.665
NCI-H2085 | 0.919

Same assay, conditions: first compound 2.53 µM

Cell Line | relative viability
NCI-H460 | 0.45
HOP-62 | 0.816
LXF-289 | 0.673
BEN | 0.058
HARA | 0.393
HCC-78 | 0.544
NCI-H647 | 0.821
LCLC-97TM1 | 0.67
NCI-H2126 | 0.747
A-427 | 0.771
RERF-LC-KJ | 0.671
NCI-H1915 | 0.348
NCI-H441 | 0.544
NCI-H1975 | 0.838
NCI-H1395 | 1
201T | 0.53
NCI-H2023 | 0.565
HCC-827 | 0.399
NCI-H322M | 1.11

Cell Line | relative viability
NCI-H1437 | 0.564
PC-14 | 0.719
CAL-12T | 0.834
NCI-H1734 | 0.843
EPLC-272H | 1.11
NCI-H3122 | 0.691
NCI-H2009 | 0.614
NCI-H520 | 1.05
NCI-H1651 | 0.782
NCI-H1993 | 0.876
NCI-H2228 | 0.756
HCC-15 | 0.455
NCI-H1793 | 0.371
EKVX | 0.429
LC-2-ad | 0.307
NCI-H1666 | 0.723
NCI-H1944 | 0.733
NCI-H2085 | 0.908

Same assay, conditions: first compound 8 µM

Cell Line | relative viability
NCI-H460 | 0.392
HOP-62 | 0.863
LXF-289 | 0.618
BEN | 0.141
HARA | 0.352
HCC-78 | 0.525
NCI-H647 | 0.679
LCLC-97TM1 | 0.447
NCI-H2126 | 0.645
A-427 | 0.631
RERF-LC-KJ | 0.765
NCI-H1915 | 0.277
NCI-H441 | 0.472
NCI-H1975 | 0.882
NCI-H1395 | 1.13
201T | 0.529
NCI-H2023 | 0.442
HCC-827 | 0.328
NCI-H322M | 1
